Laboratory results taken from patent US10682371B2, “Small molecule conjugates specifically activated in tumor microenvironment for targeting and use thereof” (priority 2014, dated 2020).
Where two headings read alike, the source gives them in different places.

How the values were obtained:
Human heart = format: biochemical; details: for Activation Efficiencies (%): Human heart homogenate, 1 mg/ml compound; for Activation ratio (%) in homogenates from different tumor tissues: Human heart, 1 mg/ml
tumor tissue homogenates = format: biochemical
Outline: (§1)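 Compounds at 1 mg/ml were incubated at 37°C with 100 μg acidized tissue homogenate (pH 6.0). Activation by homogenate proteases was assessed.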

[1] = tested on: Human fibrosarcoma HT-1080 tumor tissue homogenate; format: biochemical; details: for Activation Efficiencies (%): Human fibrosarcoma HT-1080 tumor tissue homogenate (30 μg/ml), 1 mg/ml compound; for Activation ratio (%) in homogenates from different tumor tissues: Human fibrosarcoma HT-1080
Outline: as §1

4T1 cells = assay: BALB/C mice model for tumor metastasis (4T1, lung metastases); format: in vivo; details: for Inhibitory rate on metastasis / Number of metastasized tumor: IV every three days for 4 times, Paclitaxel 4 mg/kg; for Inhibitory effect on tumor metastasis, in words: compared with parent drug group and control group
Outline: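 10^6 4T1 cells (DMEM, 10% FBS, within passage 15) injected subcutaneously into the back of BALB/C mice; primary tumor resected at about 1.5 cm, then dosing began. Drugs given IV once every three days, 4 times; saline controls. Lungs removed day 27, Bouin's-stained, metastases counted under anatomical microscope.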

BALB/C mice = assay: Maximum tolerated dose (MTD) / acute toxicity by single intravenous injection; details: for Behaviors and death observed: BALB/C mice receiving 90 mg/kg injection
[2] = tested on: Human prostate cancer PC-3 cells / Panc-1 cells; assay: Tumor treatment in nude mice (PC-3 cells purchased, Panc-1 cells injected; Examples 22, 32, 42); format: in vivo; details: for Inhibition on tumor growth, in words: compared with parent drug group (same molar concentration) and control group
Outline: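 Nude mice bearing subcutaneous Panc-1 xenografts (5×10^6 cells on the back) were randomized once tumors reached at least 100 mm^3. Drugs were given intravenously once weekly for four weeks, with saline controls. PC-3 cells were grown in DMEM/10% FBS and used within passage 15.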

[3] = Solubility / formulation test in solvent 1 and solvent 2; format: physicochemical; details: for Concentration achieved, completely dissolved in both solvent 1 and solvent 2: solvent 1 injectable water
Experimental: In Table 11, AAN, AANL and AANK indicate the linkage formed by small peptides in the compounds, A is Ala, N is Asn, L is Leu and K is Lys. […] The dissolution concentration is 10 mg/ml.
B1, B2, B3 and B4 and various control compounds were dried under vacuum, sterilized via gas sterilization, and separately packing in a sterile room. Before animal test, B1, B2, B3 and B4 were dissolved by solvent 1 (injectable water) or solvent 2 (30% alcohol, 70% injectable water) and diluted by injectable water to the desired concentration in sterile room. […] Change in solubility may greatly affect the formulation scheme of a drug.
D1, D2, D3, D4 and various control compounds were dried under vacuum, sterilized via gas sterilization, and separately packing in a sterile room. […] Change in solubility may greatly affect the formulation scheme of a drug.

[4] = Table 28, BALB/C mice, 4T1, lung metastases day 27, A1-A4 12 mg/kg
[5] = single intravenous injection, 125 mg/kg, 10 BALB/C mice per group
[6] = single intravenous injection, 150 mg/kg, 10 BALB/C mice per group
[7] = single intravenous injection, 175 mg/kg, 10 BALB/C mice per group
[8] = single intravenous injection, 200 mg/kg, 10 BALB/C mice per group
[9] = Table 26, nude mice, IV once weekly for four weeks, A1-A4 24 mg/kg, Paclitaxel 8 mg/kg
[10] = 4T1, BALB/C mice, lung, day 27, S1′-S4′ 12 mg/kg
[11] = nude mice, IV once weekly for four weeks, S1′-S4′ 24 mg/kg, Paclitaxel 8 mg/kg, Day 10
[12] = nude mice, IV once weekly for four weeks, S1′-S4′ 24 mg/kg, Paclitaxel 8 mg/kg

4-N—(N—(N—(N-(6-maleimido caproyl)-L-alanyl)-L-alanyl)-L-asparaginyl)-amino benzyl alcohol-MMAE-carbamate [Compound S6]
Activation Efficiencies (%) (Human heart): 5.3% | Activation efficiency by tumor tissue, in words (tumor tissue homogenates): relatively low activation efficiency | Activation Efficiencies (%) [1]: 24.3%

COCCOCCOCCOCCOCCOCCOCCOCCOCCOCCOCCOCC(=O)NCCCC[C@H](NC(=O)COCCOCCOCCOCCOCCOCCOCCOCCOCCOCCOCCOC)C(=O)N[C@H](C)C(=O)N[C@H](C)C(=O)N[C@H](CC(N)=O)C(=O)Nc1ccc(COC(=O)OC(C(=O)OC2C[C@@]3(O)[C@@H](OC(=O)c4ccccc4)[C@H]4[C@](C)(C(=O)[C@H](OC(C)=O)C(=C2C)C3(C)C)[C@@H](O)CC2OC[C@]24OC(C)=O)[C@@H](NC(=O)c2ccccc2)c2ccccc2)cc1 (stereo partly drawn) [Compound A3]
Activation ratio (%) in homogenates from different tumor tissues (Human heart; acidized homogenate pH6.0, Paclitaxel release by HPLC): none | Inhibitory rate on metastasis (4T1 cells; [4]): 89.1% | Number of metastasized tumor (4T1 cells; [4]): 16 ± 9 | Inhibitory effect on tumor metastasis, in words (4T1 cells): greatly improved | Behaviors and death observed (BALB/C mice): no pilo-erection, hair tousle and lackluster, lethargy, stoop, irritable reaction and death | Mortality rate (%) (BALB/C mice; [5]): 10% | Number of dead animal (BALB/C mice; [5]): 1 | Mortality rate (%) (BALB/C mice; [6]): 0% | Number of dead animal (BALB/C mice; [6]): 0 | Mortality rate (%) (BALB/C mice; [7]): 0% | Number of dead animal (BALB/C mice; [7]): 0 | Mortality rate (%) (BALB/C mice; [8]): 0% | Number of dead animal (BALB/C mice; [8]): 0 | inhibitory rate on tumor Day 10 ([2]; Table 26, nude mice, IV once weekly for four weeks, A1-A4 24 mg/kg, Paclitaxel 8 mg/kg, Day 10): 71.9% | Size of tumor (mm^3) Day 24 [2, 9]: 81.83 ± 89.2 mm^3 | inhibitory rate on tumor Day 24 [2, 9]: 78.5% | Inhibition on tumor growth, in words [2]: greatly improved | Activation efficiency by tumor tissue, in words (tumor tissue homogenates): highest activation efficiency among the screened compounds | Activation ratio (%) in homogenates from different tumor tissues ([1]; 1 mg/ml, 100 μg acidized homogenate pH6.0, Paclitaxel release by HPLC): 70.3% | solubility in Solvent 1 ([3]; solvent 1 (injectable water), Table 22, Paclitaxel series): soluble | Concentration achieved, completely dissolved in both solvent 1 and solvent 2 ([3]; solvent 2 45% alcohol, 55% injectable water): 10000 µg/mL | solubility in Solvent 2 ([3]; solvent 2 (45% alcohol, 55% injectable water), Table 22, Paclitaxel series): soluble | Solubility in water, in words ([3]; water): can directly dissolve in water

CCCCCOC(=O)Nc1nc(=O)n([C@@H]2O[C@H](C)[C@@H](OC(=O)OCc3ccc(NC(=O)[C@H](CC(N)=O)NC(=O)[C@H](C)NC(=O)[C@H](C)NC(=O)CCCCCCC(=O)NO)cc3)[C@H]2O)cc1F [Compound S3, 4-N—(N—(N—(N-(8-(N-hydroxylamino)-1,8-octandioic acid-1-monoacyl)-L-alanyl)-L-alanyl)-L-asparaginyl)-amino benzyl alcohol-capecitabine-carbonic acid diester]
Activation Efficiencies (%) (Human heart): 1.6% | Activation efficiency by tumor tissue, in words (tumor tissue homogenates): very high activation efficiency | Activation Efficiencies (%) [1]: 94.9%

COc1cccc2c1C(=O)c1c(O)c3c(c(O)c1C2=O)C[C@@](O)(C(C)=O)C[C@@H]3O[C@H]1C[C@H](NC(=O)OCc2ccc(NC(=O)[C@H](CC(N)=O)NC(=O)[C@H](C)NC(=O)[C@H](C)NC(=O)CCCCCN3C(=O)C=CC3=O)cc2)[C@H](O)[C@H](C)O1 [Compound S5, 4-N—(N—(N—(N-(6-maleimidocaproyl)-L-alanyl)-L-alanyl)-L-asparaginyl)-amino benzyl alcohol-daunorubicin-carbamate]
Activation Efficiencies (%) (Human heart): 3.5% | Activation Efficiencies (%) [1]: 98.4%

COCCOCCOCCOCCOCCOCCOCCOCCOCCOCCOCCOCC(=O)N[C@H](C)C(=O)N[C@H](C)C(=O)N[C@H](CC(N)=O)C(=O)Nc1ccc(COC(=O)OC(C(=O)OC2C[C@@]3(O)[C@@H](OC(=O)c4ccccc4)[C@H]4[C@](C)(C(=O)[C@H](OC(C)=O)C(=C2C)C3(C)C)[C@@H](O)CC2OC[C@]24OC(C)=O)[C@@H](NC(=O)c2ccccc2)c2ccccc2)cc1 (stereo partly drawn) [S3′]
Activation ratio (%) in homogenates from different tumor tissues (Human heart; 37°): none | Inhibitory rate on metastasis (4T1 cells; [10]): 90.44% | Number of metastasized tumor (4T1 cells; [10]): 13 ± 8 | Inhibitory effect on tumor metastasis, in words (4T1 cells): greatly improved | Behaviors and death observed (BALB/C mice): no pilo-erection, hair tousle and lackluster, lethargy, stoop, irritable reaction and death | Mortality rate (%) (BALB/C mice; BALB/C mice, single iv, 125 mg/kg): 0% | Number of dead animal (BALB/C mice; BALB/C mice, single iv, 125 mg/kg, 10 animals): 0 | Mortality rate (%) (BALB/C mice; BALB/C mice, single iv, 150 mg/kg): 0% | Number of dead animal (BALB/C mice; BALB/C mice, single iv, 150 mg/kg, 10 animals): 0 | Mortality rate (%) (BALB/C mice; BALB/C mice, single iv, 175 mg/kg): 0% | Number of dead animal (BALB/C mice; BALB/C mice, single iv, 175 mg/kg, 10 animals): 0 | Mortality rate (%) (BALB/C mice; BALB/C mice, single iv, 200 mg/kg): 10% | Number of dead animal (BALB/C mice; BALB/C mice, single iv, 200 mg/kg, 10 animals): 1 | Inhibition on tumor growth, in words [2]: greatly improved | Size of tumor (mm^3) Day 10 [2, 11]: 75.60 ± 28.54 mm^3 | inhibitory rate on tumor Day 10 [2, 11]: 49.4% | Size of tumor (mm^3) Day 24 [2, 12]: 74.39 ± 48.94 mm^3 | inhibitory rate on tumor Day 24 [2, 12]: 70.2% | Activation efficiency by tumor tissue, in words (tumor tissue homogenates): highest activation efficiency among the screened compounds | Activation ratio (%) in homogenates from different tumor tissues ([1]; 100 μg acidized homogenate pH6.0, 1 mg/ml, 37°): 67.9% | solubility in Solvent 1 ([3]; Solvent 1 injectable water, dissolution concentration 10 mg/ml): soluble | solubility in Solvent 2 ([3]; Solvent 2: 50% injectable water, 45%-49% propanediol, 1%-5% Tween80, dissolution concentration 10 mg/ml): soluble | Concentration achieved, completely dissolved in both solvent 1 and solvent 2 ([3]; solvent 2 50% injectable water, 42%-49% propanediol, 1%-8% Tween80): 10000 µg/mL
